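Five compound concentrations were applied to cells in 96-well plates for 48 hours; endpoints were derived by simple linear interpolation of the resulting dose-response curve. At the GI50, growth is halved.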 The source made the active and inactive calls. No stated cut-off is given here; in the data, active = GI50 up to about 1.1 µM and inactive = higher.

Some test systems named below: K562; M14; HT-29; U-251; COLO 205; KM12; EKVX; SF-295; MOLT-4; SK-MEL-28; IGROV-1; SK-MEL-2; OVCAR-3; SN12C; SK-OV-3; 786-0.
Holding throughout (experiment): NCI-60 cell line screen, 48 h

For the compound `Cc1ccc2nc3c(Cl)cc(=O)cc-3sc2c1`, the GI50 in the test with K562 is 17.6 µM (inactive); with M14 it was 22.1 µM (inactive); with HT-29 it was 29.4 µM (inactive); in the test on U-251, 20.7 µM (inactive); in the test on COLO 205, 18.7 µM (inactive); in the test with KM12, > 10 µM (inactive). The GI50 in the test with EKVX was 22.2 µM (inactive); in the test with SF-295 it was 25.8 µM (inactive); with MOLT-4 it was 10.9 µM (inactive); in the test with SK-MEL-28, 35 µM (inactive); with IGROV-1 it was 19.4 µM (inactive); with SK-MEL-2, > 10 µM (inactive). For the same compound, the GI50 was 3 µM (inactive) with OVCAR-3, > 10 µM (inactive) with SN12C, > 10 µM (inactive) in the test on SK-OV-3 and 19.8 µM (inactive) in the test on 786-0.

On to `COc1ccc(-c2csc(=[N+]3CCCCC3)s2)cc1`, for which the GI50 with K562 is 2.23 µM (inactive); with M14, 10.9 µM (inactive); in the test on HT-29, 3.01 µM (inactive); with U-251, 0.743 µM (active); with COLO 205, 1.49 µM (inactive); in the test with KM12 it was 2.36 µM (inactive). In addition, the GI50 is 6.76 µM (inactive) in the test on EKVX; 1.98 µM (inactive) with SF-295; 2.53 µM (inactive) in the test with MOLT-4; 6 µM (inactive) in the test with SK-MEL-28; 4.54 µM (inactive) with IGROV-1; 3.63 µM (inactive) in the test on SK-MEL-2. The GI50 is 3.92 µM (inactive) in the test on OVCAR-3, 3.61 µM (inactive) in the test on SN12C, 3.41 µM (inactive) with SK-OV-3 and 4.83 µM (inactive) in the test on 786-0.

On to `O=c1c2cc(Br)cc(Br)c2nc(CCCl)n1-c1ccc(O)c([N+](=O)[O-])c1`, for which the GI50 was 33.3 µM (inactive) with K562; 17.2 µM (inactive) in the test on M14; 20.6 µM (inactive) in the test with HT-29; 18.4 µM (inactive) in the test with U-251; 21 µM (inactive) with COLO 205; 18.5 µM (inactive) with KM12. In addition, the GI50 is 34.5 µM (inactive) in the test on EKVX; 24.1 µM (inactive) with SF-295; 23.8 µM (inactive) in the test with MOLT-4; 19.7 µM (inactive) in the test on SK-MEL-28; 22.6 µM (inactive) with IGROV-1; 18.9 µM (inactive) with SK-MEL-2. The GI50 with OVCAR-3 was 19.1 µM (inactive); in the test on SN12C, 17.6 µM (inactive); with SK-OV-3 it was 15.8 µM (inactive); in the test with 786-0, 18.3 µM (inactive).

For `CC(=O)OC1(C)C(=O)OC1(C)C(C)=O` (centres undefined), the GI50 with K562, in the test on M14, in the test with HT-29, in the test on U-251, in the test on COLO 205 and in the test with KM12 was > 100 µM (inactive) in each case. In addition, the GI50 in the test with EKVX, in the test with SF-295, with MOLT-4, in the test on SK-MEL-28, in the test on IGROV-1 and in the test with SK-MEL-2 was > 100 µM (inactive) each time. Further, the GI50 with OVCAR-3, in the test with SN12C, in the test on SK-OV-3 and with 786-0 was > 100 µM (inactive) in each case.

As for `C/C(CC(=O)CCCC(=O)Nc1ccc(Cl)cc1Cl)=N/NC(=O)CC#N`, the GI50 with K562, in the test with M14, with HT-29, in the test with U-251, with COLO 205 and in the test with KM12 was > 100 µM (inactive) in each case. Moreover, the GI50 in the test on EKVX, in the test on SF-295, in the test with MOLT-4, with SK-MEL-28, in the test with IGROV-1 and with SK-MEL-2 was > 100 µM (inactive) throughout. The GI50 with OVCAR-3, with SN12C, in the test with SK-OV-3 and in the test with 786-0 was > 100 µM (inactive) in each case.

For the compound `O=P1(c2ccccc2)CCCCC1`, the GI50 in the test with K562, with M14, in the test on HT-29, in the test with U-251, in the test on COLO 205 and in the test on KM12 was > 100 µM (inactive) in each case. Further, the GI50 in the test on EKVX, with SF-295, with MOLT-4, in the test with SK-MEL-28, with IGROV-1 and with SK-MEL-2 was > 100 µM (inactive) in each case. In addition, the GI50 in the test with OVCAR-3, with SN12C, in the test with SK-OV-3 and with 786-0 was > 100 µM (inactive) in each case.

Take `C(=C1\CCC/C(=C/c2ccccc2)C1=NNc1ccccc1)/c1ccccc1`: the GI50 in the test with K562, in the test on M14, with HT-29, in the test with U-251, with COLO 205 and with KM12 was > 100 µM (inactive) throughout. In addition, the GI50 in the test with EKVX, in the test with SF-295, in the test on MOLT-4, with SK-MEL-28, in the test on IGROV-1 and in the test with SK-MEL-2 was > 100 µM (inactive) in each case. The GI50 with OVCAR-3, with SN12C, in the test with SK-OV-3 and in the test with 786-0 was > 100 µM (inactive) throughout.

In the case of `C[N+](C)=c1[nH]c2ccccc2[nH]1`, the GI50 with K562, with M14, in the test on HT-29, in the test on U-251, in the test with COLO 205 and in the test on KM12 was > 100 µM (inactive) each time. Besides, the GI50 in the test with EKVX, in the test with SF-295, with MOLT-4, in the test on SK-MEL-28, in the test with IGROV-1 and in the test with SK-MEL-2 was > 100 µM (inactive) throughout. In addition, the GI50 in the test on OVCAR-3, in the test with SN12C, with SK-OV-3 and in the test with 786-0 was > 100 µM (inactive) throughout.

`COc1cc(C2c3cc4c(cc3[C@@H](Nc3ccc(N(C)C)cc3)[C@H]3COC(=O)C23)OCO4)cc(OC)c1O` (some centres undefined): the GI50 was 0.537 µM (active) in the test on K562; 0.327 µM (active) in the test on M14; 1.13 µM (inactive) in the test with HT-29; 0.149 µM (active) in the test on U-251; 1.85 µM (inactive) with COLO 205; 1.24 µM (inactive) with KM12. In addition, the GI50 was 0.456 µM (active) with EKVX; 0.122 µM (active) in the test on SF-295; 0.108 µM (active) in the test on MOLT-4; 3.79 µM (inactive) with SK-MEL-28; 3.56 µM (inactive) with IGROV-1; 2.37 µM (inactive) in the test on SK-MEL-2. Moreover, the GI50 in the test on OVCAR-3 is 8.04 µM (inactive); with SN12C, 0.34 µM (active); in the test on SK-OV-3, 0.212 µM (active); in the test with 786-0 it was 0.228 µM (active).

The record behind these values is ChEMBL document CHEMBL1201862, “PubChem BioAssay data set” (2004).
